Reference: PubChem BioAssay (NCI)
Several values for one entry are separate records, joined by “and”; a condition that tells them apart may be missing. Equal values may be shown once.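 Values below derive from 48-hour exposures of cells grown in 96-well plates, with endpoints linearly interpolated between the two concentrations bracketing the appropriate inhibition level. GI50 marks 50% less growth. TGI: concentration producing complete growth inhibition.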

How the values were obtained:
Assay in all cases: growth of human tumour cells (NCI), 48 h
HCT-15 colon = test system: HCT-15 colon
HOP-92 NSCLC = test system: HOP-92 NSCLC
OVCAR-8 ovarian = test system: OVCAR-8 ovarian
RPMI-8226 leukemia = test system: RPMI-8226 leukemia
RXF 393 renal = test system: RXF 393 renal
SK-MEL-2 melanoma = test system: SK-MEL-2 melanoma
SN12C renal = test system: SN12C renal
SW-620 colon = test system: SW-620 colon
TK-10 renal = test system: TK-10 renal
UACC-257 melanoma = test system: UACC-257 melanoma

SMILES | GI50 (HCT-15 colon) [µM] | TGI (HCT-15 colon) | GI50 (HOP-92 NSCLC) [nM] | TGI (HOP-92 NSCLC) | GI50 (OVCAR-8 ovarian) [nM] | TGI (OVCAR-8 ovarian) | GI50 (RPMI-8226 leukemia) [µM] | TGI (RPMI-8226 leukemia) | GI50 (RXF 393 renal) [µM] | TGI (RXF 393 renal) [µM] | GI50 (SK-MEL-2 melanoma) | TGI (SK-MEL-2 melanoma) | GI50 (SN12C renal) [nM] | TGI (SN12C renal) | GI50 (SW-620 colon) [nM] | TGI (SW-620 colon) | GI50 (TK-10 renal) [nM] | TGI (TK-10 renal) | GI50 (UACC-257 melanoma) [µM] | TGI (UACC-257 melanoma)
COc1ccc(/C=C/C(=O)c2ccc(Nc3nc(Nc4ccc(F)cc4)nc(Nc4ccc(Cl)cc4)n3)cc2)cc1 | 30.8 | > 100 µM | 31100 | 88.7 µM | > 100000 | > 100 µM | 6.91 | > 100 µM | 13 | > 100 | 41.3 µM | > 100 µM | > 100000 | > 100 µM | > 100000 | > 100 µM | > 100000 | > 100 µM | > 100 | > 100 µM
CCC(C)(C)[C@H](NC(=O)[C@H]1CCCCN1C)C(=O)N(C)[C@H](C[C@@H](OC(C)=O)c1nc(C(=O)N[C@@H](Cc2ccccc2)C[C@H](C)C(=O)O)cs1)C(C)C | < 0.00167 | > 16.7 µM | 6.61 | > 16.7 µM | < 1.67 | > 16.7 µM | < 0.00167 | > 16.7 µM | < 0.00167 | – | < 0.00167 µM | > 16.7 µM | < 1.67 | > 16.7 µM | < 1.67 | > 16.7 µM | 253 | > 16.7 µM | > 16.7 | > 16.7 µM
Cn1c(NCC(CN2CCCC2)OC(=O)c2ccccc2)cc(=O)n(C)c1=O (stereo not given) | > 100 | > 100 µM | > 100000 | > 100 µM | > 100000 | > 100 µM | > 100 | > 100 µM | > 100 | > 100 | > 100 µM | > 100 µM | > 100000 | > 100 µM | > 100000 | > 100 µM | > 100000 | > 100 µM | > 100 | > 100 µM
C/C(=N/NC(=S)N1CC2CCC(CC2)C1)c1cnccn1 | – | 16 µM | – | 12.7 µM | – | 11.8 µM | – | 4.95 µM | – | 7.78 | – | 8.75 µM | – | 14.4 µM | – | 12.4 µM | – | 16.7 µM | – | 14.3 µM
O=c1nc(N2CCCC2)nc(N2CCCC2)s1 | – | > 100 µM | – | > 100 µM | – | > 100 µM | – | > 100 µM | – | > 100 | – | > 100 µM | – | > 100 µM | – | > 100 µM | – | > 100 µM | – | > 100 µM
C=C1C(=O)OC2CC1C(OC(C)=O)C/C(C)=C/CC/C(C)=C\CCC2(C)O (stereo not given) | – | 13.5 µM and 3.63 µM | – | 13.2 µM and 9.51 µM | – | 14.6 µM and 12.6 µM | – | 7.9 µM and 7.55 µM | – | 14 | 8.67 µM and 21.4 µM | 22.5 µM and > 100 µM | – | 11.3 µM and 16.6 µM | – | 12.6 µM and 8.91 µM | – | 12.4 µM and 16.1 µM | – | 18.7 µM and 12.7 µM
COc1cc2c3c(n(CCCN4CCCNCC4)c(=O)c2cc1OC)-c1cc2c(cc1C3=O)OCO2 | 1.09 | 6.74 µM | 135 | 0.471 µM | 466 | 4.22 µM | 0.571 | 2.1 µM | 2.53 | 11.5 | 3.7 µM | 17.6 µM | 239 | 1.28 µM | 267 | 12 µM | 1350 | 7.54 µM | 5.85 | 15.9 µM
COc1ccc2[nH]c3c4c(cc(-c5ccccc5)c3c2c1)C(=O)N(c1ccccc1)C4=O | – | > 100 µM | – | 74 µM | – | 39.6 µM | – | > 100 µM | – | 69.7 | – | > 100 µM | – | > 100 µM | – | > 100 µM | – | > 100 µM | – | > 100 µM
